These results are taken from patent publication US12030878B2 (BRISTOL-MYERS SQUIBB COMPANY, priority 2017, dated 2024).

What all share (type): cell-based
One assay addresses T1, human TLR9 (Homo sapiens, UniProt Q9NR96).
T1 construct: host or cells: HEK-Blue cells
T1 sequence (Q9NR96 26-1032): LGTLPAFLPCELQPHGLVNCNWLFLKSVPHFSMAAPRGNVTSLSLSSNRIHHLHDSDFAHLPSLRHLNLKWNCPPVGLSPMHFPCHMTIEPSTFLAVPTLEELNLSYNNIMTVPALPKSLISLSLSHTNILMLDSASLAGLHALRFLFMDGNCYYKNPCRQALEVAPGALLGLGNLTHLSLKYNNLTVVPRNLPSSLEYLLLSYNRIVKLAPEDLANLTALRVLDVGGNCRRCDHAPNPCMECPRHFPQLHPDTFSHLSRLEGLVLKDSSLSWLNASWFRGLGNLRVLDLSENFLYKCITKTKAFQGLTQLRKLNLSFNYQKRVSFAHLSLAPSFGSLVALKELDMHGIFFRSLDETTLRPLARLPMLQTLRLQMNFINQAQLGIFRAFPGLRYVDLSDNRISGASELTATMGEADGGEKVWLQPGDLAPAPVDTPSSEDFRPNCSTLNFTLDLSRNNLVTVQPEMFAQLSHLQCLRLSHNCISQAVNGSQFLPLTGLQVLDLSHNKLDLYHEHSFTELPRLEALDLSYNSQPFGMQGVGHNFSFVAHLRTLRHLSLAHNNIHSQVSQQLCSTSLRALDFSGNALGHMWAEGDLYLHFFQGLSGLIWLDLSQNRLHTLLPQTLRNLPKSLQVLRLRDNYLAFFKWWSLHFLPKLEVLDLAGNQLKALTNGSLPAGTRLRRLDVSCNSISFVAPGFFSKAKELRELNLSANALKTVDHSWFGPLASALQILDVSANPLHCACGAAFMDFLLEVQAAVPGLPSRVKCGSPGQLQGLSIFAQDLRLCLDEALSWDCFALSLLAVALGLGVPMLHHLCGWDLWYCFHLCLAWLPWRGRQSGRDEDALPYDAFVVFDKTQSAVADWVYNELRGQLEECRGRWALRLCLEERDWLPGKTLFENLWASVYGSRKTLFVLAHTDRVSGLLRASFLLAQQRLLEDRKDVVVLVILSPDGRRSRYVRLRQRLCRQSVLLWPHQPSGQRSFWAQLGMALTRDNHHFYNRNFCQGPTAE
The assay is described as follows: TLR9 inhibition reporter assay (HEK-Blue SEAP). The note with it: HEK-Blue cells overexpressing human TLR9, stimulated with ODN2006 5 nM, 22 hour incubation. In short, it runs like this: (§1)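 SEAP read-out via HEK-Blue Detection medium after 22 h at 37 °C; percent inhibition relative to agonist-plus-DMSO and known-inhibitor wells. Agonists: TLR7 gardiquimod 7.5 μM, TLR8 R848 15.9 μM, TLR9 ODN2006 5 nM. Dose range 0.05 nM–50 μM, 30 min compound pre-treatment at RT.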

Another assay addresses T2, human TLR8 (Homo sapiens, UniProt Q9NR97).
T2 construct: host or cells: HEK-Blue cells
T2 sequence (Q9NR97 27-1041): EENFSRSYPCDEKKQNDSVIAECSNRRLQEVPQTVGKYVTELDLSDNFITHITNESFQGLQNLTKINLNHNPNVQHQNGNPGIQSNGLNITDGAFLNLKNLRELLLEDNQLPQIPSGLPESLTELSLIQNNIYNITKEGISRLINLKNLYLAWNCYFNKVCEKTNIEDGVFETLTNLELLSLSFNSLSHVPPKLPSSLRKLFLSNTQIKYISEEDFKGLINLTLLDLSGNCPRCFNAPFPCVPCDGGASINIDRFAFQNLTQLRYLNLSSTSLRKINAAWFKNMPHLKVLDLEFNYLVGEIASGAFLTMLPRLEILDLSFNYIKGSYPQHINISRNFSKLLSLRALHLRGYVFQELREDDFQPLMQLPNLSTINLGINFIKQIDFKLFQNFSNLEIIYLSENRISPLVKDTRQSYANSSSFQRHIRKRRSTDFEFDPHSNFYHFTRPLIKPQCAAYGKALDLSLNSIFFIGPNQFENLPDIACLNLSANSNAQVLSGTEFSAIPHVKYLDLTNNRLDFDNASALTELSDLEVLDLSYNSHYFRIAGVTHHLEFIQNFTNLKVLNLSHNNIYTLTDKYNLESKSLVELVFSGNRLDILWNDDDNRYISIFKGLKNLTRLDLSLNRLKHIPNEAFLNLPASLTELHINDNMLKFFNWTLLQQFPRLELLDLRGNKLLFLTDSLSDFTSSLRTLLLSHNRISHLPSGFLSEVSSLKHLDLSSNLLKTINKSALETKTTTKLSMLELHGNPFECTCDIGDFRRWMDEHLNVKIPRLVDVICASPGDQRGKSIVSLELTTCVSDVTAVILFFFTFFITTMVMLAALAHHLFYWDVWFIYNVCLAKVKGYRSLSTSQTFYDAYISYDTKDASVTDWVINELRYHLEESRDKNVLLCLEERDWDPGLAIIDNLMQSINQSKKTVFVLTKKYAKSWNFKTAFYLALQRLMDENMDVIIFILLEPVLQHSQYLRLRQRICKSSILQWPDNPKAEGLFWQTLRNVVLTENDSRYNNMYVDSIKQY
The assay is described as follows: TLR8 inhibition reporter assay (HEK-Blue SEAP). As to conditions: HEK-Blue cells overexpressing human TLR8, stimulated with R848 15.9 μM, 22 hour incubation. The essentials: as §1

Another assay deals with T3, human TLR7 (Homo sapiens, UniProt Q9NYK1).
T3 construct: host or cells: HEK-Blue cells
T3 sequence (Q9NYK1 27-1049): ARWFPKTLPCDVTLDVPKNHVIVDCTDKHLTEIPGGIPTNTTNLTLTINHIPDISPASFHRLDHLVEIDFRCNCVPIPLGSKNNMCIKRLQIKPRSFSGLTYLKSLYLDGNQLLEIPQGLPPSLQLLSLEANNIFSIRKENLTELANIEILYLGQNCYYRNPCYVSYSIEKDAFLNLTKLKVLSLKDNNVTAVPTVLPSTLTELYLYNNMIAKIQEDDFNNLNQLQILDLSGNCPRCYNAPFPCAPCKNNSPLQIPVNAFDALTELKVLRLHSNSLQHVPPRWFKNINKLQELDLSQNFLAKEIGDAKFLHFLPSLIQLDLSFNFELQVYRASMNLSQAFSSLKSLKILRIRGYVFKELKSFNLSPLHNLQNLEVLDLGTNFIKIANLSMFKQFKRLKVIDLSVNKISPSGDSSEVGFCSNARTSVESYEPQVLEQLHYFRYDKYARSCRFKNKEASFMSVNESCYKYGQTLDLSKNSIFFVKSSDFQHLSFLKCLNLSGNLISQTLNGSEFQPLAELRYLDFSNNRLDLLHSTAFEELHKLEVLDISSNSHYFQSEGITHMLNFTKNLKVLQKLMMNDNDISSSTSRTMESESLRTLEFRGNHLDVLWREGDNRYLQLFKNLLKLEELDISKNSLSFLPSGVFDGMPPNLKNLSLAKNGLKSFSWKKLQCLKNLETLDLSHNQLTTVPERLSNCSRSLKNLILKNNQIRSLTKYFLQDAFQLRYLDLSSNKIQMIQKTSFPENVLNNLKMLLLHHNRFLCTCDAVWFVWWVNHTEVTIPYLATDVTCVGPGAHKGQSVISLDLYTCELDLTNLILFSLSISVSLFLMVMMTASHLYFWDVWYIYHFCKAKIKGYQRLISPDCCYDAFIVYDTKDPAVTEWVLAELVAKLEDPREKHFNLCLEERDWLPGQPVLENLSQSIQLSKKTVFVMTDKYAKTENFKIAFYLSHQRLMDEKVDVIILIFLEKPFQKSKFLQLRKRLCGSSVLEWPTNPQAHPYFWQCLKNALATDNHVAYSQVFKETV
The assay is described as follows: TLR7 inhibition reporter assay (HEK-Blue SEAP). As to conditions: HEK-Blue cells overexpressing human TLR7, stimulated with gardiquimod 7.5 μM, 22 hour incubation. In short, it runs like this: as §1

Consider `COc1cc(-c2[nH]c3ccc(OC4CCN(C(C)C)CC4)cc3c2C(C)C)cn2ncnc12` [Example 66, 6-(3-isopropyl-5-((1-isopropylpiperidin-4-yl)oxy)-1H-indol-2-yl)-8-methoxy-[1,2,4]triazolo[1,5-a]pyridine], for which the results for the IC50 against human TLR9, against human TLR8 and on human TLR7 were 1150 nM, 0.7 nM and 0.8 nM, respectively.

For the compound `CCCN1CCC(Oc2ccc3[nH]c(-c4cc(OC)c5ncnn5c4)c(C(C)C)c3c2)CC1` [Example 67, 6-(3-isopropyl-5-((1-propylpiperidin-4-yl)oxy)-1H-indol-2-yl)-8-methoxy-[1,2,4]triazolo[1,5-a]pyridine], the IC50 against human TLR9 turned out to be 1060 nM; against human TLR8, 0.2 nM; against human TLR7, 0.2 nM.

Take `Cc1cc(-c2[nH]c3ccc(OC4CCN(C5CCOCC5)CC4)cc3c2C(C)C)cn2ncnc12` [Example 68, 6-(3-isopropyl-5-((1-(tetrahydro-2H-pyran-4-yl)piperidin-4-yl)oxy)-1H-indol-2-yl)-8-methyl-[1,2,4]triazolo[1,5-a]pyridine]: the results for the IC50 against human TLR9, on human TLR8 and at human TLR7 were 2290 nM, 1.7 nM and 5.9 nM, respectively.

As to `Cc1cc(-c2[nH]c3ccc(OC4CCN(CC(C)O)CC4)cc3c2C(C)C)cc(C)n1` (stereo not drawn) [Example 69, 1-(4-((2-(2,6-dimethylpyridin-4-yl)-3-isopropyl-1H-indol-5-yl)oxy)piperidin-1-yl) propan-2-ol], the IC50 against human TLR9 was 733 nM; on human TLR8, 2.4 nM; against human TLR7 it was 5.6 nM.

For the compound `Cc1cc(-c2[nH]c3ccc(OC4CCN(CCO)CC4)cc3c2C(C)C)cc(C)n1` [Example 70, 2-(4-((2-(2,6-dimethylpyridin-4-yl)-3-isopropyl-1H-indol-5-yl)oxy)piperidin-1-yl) ethan-1-ol], the IC50 against human TLR9 came out at 1040 nM; against human TLR8, 1.5 nM; at human TLR7 it was 9.6 nM.

With `Cc1cc(-c2[nH]c3ccc(OCC4CCN(CCO)CC4)cc3c2C(C)C)cc(C)n1` [Example 71, 2-(4-(((2-(2,6-dimethylpyridin-4-yl)-3-isopropyl-H-indol-5-yl)oxy)methyl)piperidin-1-yl)ethan-1-ol], the IC50 against human TLR9 was 359 nM; on human TLR8 it was 2.5 nM; against human TLR7, 3.8 nM.

Regarding `Cc1cc(-c2[nH]c3ccc(OC4CCN(CCCO)CC4)cc3c2C(C)C)cc(C)n1` [Example 72, 3-(4-((2-(2,6-dimethylpyridin-4-yl)-3-isopropyl-1H-indol-5-yl)oxy)piperidin-1-yl)propan-1-ol], the IC50 on human TLR9 amounted to 528 nM; at human TLR8 it was 1.3 nM; against human TLR7, 3.8 nM.

Regarding `COCCN1CCC(COc2ccc3[nH]c(-c4cc(C)nc(C)c4)c(C(C)C)c3c2)CC1` [Example 73, 2-(2,6-dimethylpyridin-4-yl)-3-isopropyl-5-((1-(2-methoxyethyl)piperidin-4-yl)methoxy)-1H-indole], the IC50 against human TLR9 is 633 nM; against human TLR8 it was 5.2 nM; at human TLR7, 13.4 nM.

Take `COCCN1CCC(COc2ccc3[nH]c(-c4cc(C)c(=O)n(C)c4)c(C(C)C)c3c2)CC1` [Example 74, 5-(3-isopropyl-5-((1-(2-methoxyethyl)piperidin-4-yl)methoxy)-1H-indol-2-yl)-1,3-dimethylpyridin-2(1H)-one]: the values for the IC50 against human TLR9, against human TLR8 and on human TLR7 were 29200 nM, 3.9 nM and 20.7 nM, respectively.

In the case of `COCCN1CCC(Oc2ccc3[nH]c(-c4cc(C)nc(C)c4)c(C(C)C)c3c2)CC1` [Example 75, 2-(2,6-dimethylpyridin-4-yl)-3-isopropyl-5-((1-(2-methoxyethyl)piperidin-4-yl)oxy)-1H-indole], the values for the IC50 on human TLR9, on human TLR8 and against human TLR7 were 663 nM, 1.5 nM and 10.5 nM, respectively.

In the case of `Cc1cc(-c2[nH]c3ccc(OC4CCN(CC(C)C)CC4)cc3c2C(C)C)cn(C)c1=O` [Example 76, 5-(5-((1-isobutylpiperidin-4-yl)oxy)-3-isopropyl-1H-indol-2-yl)-1,3-dimethylpyridin-2(1H)-one], the figures for the IC50 against human TLR9, on human TLR8 and at human TLR7 were 5570 nM, 0.8 nM and 2.8 nM, respectively.

Turning to `Cc1cc(-c2[nH]c3ccc(OC4CCN(CC(C)C)CC4)cc3c2C(C)C)cn2ncnc12` [Example 77, 6-(5-((1-isobutylpiperidin-4-yl)oxy)-3-isopropyl-1H-indol-2-yl)-8-methyl-[1,2,4]triazolo[1,5-a]pyridine], the results for the 50% inhibitory concentration (IC50) against human TLR9, at human TLR8 and against human TLR7 were 2830 nM, 1.4 nM and 2.9 nM, respectively.

As to `Cc1cc(-c2[nH]c3ccc(OC4CCN(CCCC(F)(F)F)CC4)cc3c2C(C)C)cn(C)c1=O` [Example 78, 5-(3-isopropyl-5-((1-(4,4,4-trifluorobutyl)piperidin-4-yl)oxy)-1H-indol-2-yl)-1,3-dimethylpyridin-2(1H)-one], the results for the IC50 on human TLR9, against human TLR8 and at human TLR7 were 6310 nM, 1.1 nM and 10.9 nM, respectively.
